According to patent publication US7915255B2, “Metabolism-modulating agents and uses therefor” (Verva Pharmaceuticals Pty Ltd, priority 2004, dated 2011):
Entries after “also recorded” stand apart in the source; their conditions may differ.

Experiments:
[1] = tested on: IMPDH; assay: Insulin-stimulated 32P phosphorylation of IMPDH; format: cell-based
Procedure: (§1) 3T3-L1 cells, CHO.IR cells (46) and fibroblast cells derived from vimentin null (Vim^−/−) mice were cultured as described (28, 47). Human preadipocytes were cultured and differentiated as described (47). Transfections were performed using Lipofectamine. Cells were serum starved for at least 2 h before treatment with insulin (1 μM, 15 min) or pre-treatment with wortmannin (100 nM, 25 min), LY294002 (50 μM, 10 min) or C2-ceramide (100 μM, 2 h) followed by insulin or oleate. To induce lipid body accumulation cells were cultured in regular growth medium supplemented with 200 μM oleate complexed to fatty acid free bovine serum albumin (BSA) in a 6:1 molar ratio. Mycophenolic acid (MPA) was dissolved in methanol to give a stock solution of 30 mM. This was further diluted in methanol, prior to direct addition to the culture media such that the final concentration of methanol was always 0.1%. Guanosine was dissolved in DMSO to give a stock solution of 100 mM. This was further diluted in DMSO, prior to direct addition to the culture media such that the final concentration of DMSO was always 0.33%. Media was refreshed, with addition of fresh MPA, guanosine, or vehicle, every 3 days as appropriate. […] Samples were subjected to SDS-PAGE and analysed by immunoblotting and autoradiography. […]

[2] = tested on: Akt; assay: Akt phosphorylation (immunoblotting); format: cell-based; settings: C2-ceramide; data not shown
Procedure: (§2) 3T3-L1 cells, CHO.IR cells (46) and fibroblast cells derived from vimentin null (Vim^−/−) mice were cultured as described (28, 47). Human preadipocytes were cultured and differentiated as described (47). Transfections were performed using Lipofectamine. Cells were serum starved for at least 2 h before treatment with insulin (1 μM, 15 min) or pre-treatment with wortmannin (100 nM, 25 min), LY294002 (50 μM, 10 min) or C2-ceramide (100 μM, 2 h) followed by insulin or oleate. To induce lipid body accumulation cells were cultured in regular growth medium supplemented with 200 μM oleate complexed to fatty acid free bovine serum albumin (BSA) in a 6:1 molar ratio. Mycophenolic acid (MPA) was dissolved in methanol to give a stock solution of 30 mM. This was further diluted in methanol, prior to direct addition to the culture media such that the final concentration of methanol was always 0.1%. Guanosine was dissolved in DMSO to give a stock solution of 100 mM. […]
For western blotting, following appropriate treatment, cells were harvested in lysis buffer (50 mM HEPES (pH 7.4), 150 mM NaCl, 1% Triton-X-100, 1 mM Na3VO4, 30 mM NaF, 10 mM Na4P2O7, 10 mM EDTA, 1 μg/ml aprotinin, 1 μg/ml leupeptin, 2 mM PMSF) and clarified by centrifugation (2,000×g for 10 min). Protein concentration was determined using the BCA assay. […]

[3] = tested on: CHO.IR cells; assay: Oleate-induced lipid accumulation, Oil red-O staining; format: cell-based, Chinese hamster; settings: LY294002 + 200 μM oleate, 5 h
Procedure: as §1, with “(Vim^-/-)” for “(Vim^−/−)”, “Quantification of lipids was determined by measuring Oil red-O staining at […]. Protein concentration was determined in parallel and values” for “Samples”, “normalised” for “subjected”, “protein.” for “SDS-PAGE and analysed by immunoblotting and autoradiography.”

[4] = tested on: 3T3-L1 preadipocytes; assay: Adipogenesis of 3T3-L1 preadipocytes (lipid accumulation, G3PDH activity, protein); format: cell-based, murine
Procedure: (§3) 3T3-L1 cells, CHO.IR cells (46) and fibroblast cells derived from vimentin null (Vim^−/−) mice were cultured as described (28, 47). Human preadipocytes were cultured and differentiated as described (47). Transfections were performed using Lipofectamine. Cells were serum starved for at least 2 h before treatment with insulin (1 μM, 15 min) or pre-treatment with wortmannin (100 nM, 25 min), LY294002 (50 μM, 10 min) or C2-ceramide (100 μM, 2 h) followed by insulin or oleate. To induce lipid body accumulation cells were cultured in regular growth medium supplemented with 200 μM oleate complexed to fatty acid free bovine serum albumin (BSA) in a 6:1 molar ratio. Mycophenolic acid (MPA) was dissolved in methanol to give a stock solution of 30 mM. This was further diluted in methanol, prior to direct addition to the culture media such that the final concentration of methanol was always 0.1%. Guanosine was dissolved in DMSO to give a stock solution of 100 mM. This was further diluted in DMSO, prior to direct addition to the culture media such that the final concentration of DMSO was always 0.33%. Media was refreshed, with addition of fresh MPA, guanosine, or vehicle, every 3 days as appropriate. Cells were washed in ice cold PBS (pH 7.4) and harvested in 1 ml of ice-cold 50 mM Tris (pH 7.5) containing 1 mM EDTA and 500 μM DTT. Cells were disrupted by sonication and centrifuged at 12000 g for 15 min at 4° C. Before assay, 5 μl of 100 mM DTT was added. The supernatant was then assayed for G3PDH activity in a final concentration of 100 mM triethanolamine-HCl (pH 7.5), 2.5 mM EDTA, 0.24 mM NADH, 50 μM DTT and 0.4 mM dihydroxyacetone phosphate (DAP). The reaction was initiated by addition of DAP and the rate of change in A340 was measured using a FLUOstar Optimem spectrophotometer (BMG labtech, Victoria Australia). Each of three culture wells was assayed in duplicate with a reagent blank containing distilled water instead of substrate (DAP). An aliquot of the supernatant was assayed to determine protein concentration.

[5] = tested on: primary human preadipocytes; assay: Adipogenesis of primary human preadipocytes (lipid accumulation, G3PDH activity); format: cell-based
Procedure: as §3

[6] = tested on: 3T3-L1 cells; assay: Western blotting of adipogenic transcription factors and IMPDH in differentiating 3T3-L1 cells; format: cell-based, murine
Procedure: 3T3-L1 cells, CHO.IR cells (46) and fibroblast cells derived from vimentin null (Vim^−/−) mice were cultured as described (28, 47). Human preadipocytes were cultured and differentiated as described (47). Transfections were performed using Lipofectamine. Cells were serum starved for at least 2 h before treatment with insulin (1 μM, 15 min) or pre-treatment with wortmannin (100 nM, 25 min), LY294002 (50 μM, 10 min) or C2-ceramide (100 μM, 2 h) followed by insulin or oleate. To induce lipid body accumulation cells were cultured in regular growth medium supplemented with 200 μM oleate complexed to fatty acid free bovine serum albumin (BSA) in a 6:1 molar ratio. Mycophenolic acid (MPA) was dissolved in methanol to give a stock solution of 30 mM. This was further diluted in methanol, prior to direct addition to the culture media such that the final concentration of methanol was always 0.1%. Guanosine was dissolved in DMSO to give a stock solution of 100 mM. This was further diluted in DMSO, prior to direct addition to the culture media such that the final concentration of DMSO was always 0.33%. Media was refreshed, with addition of fresh MPA, guanosine, or vehicle, every 3 days as appropriate.
For western blotting, following appropriate treatment, cells were harvested in lysis buffer (50 mM HEPES (pH 7.4), 150 mM NaCl, 1% Triton-X-100, 1 mM Na3VO4, 30 mM NaF, 10 mM Na4P2O7, 10 mM EDTA, 1 μg/ml aprotinin, 1 μg/ml leupeptin, 2 mM PMSF) and clarified by centrifugation (2,000×g for 10 min). Protein concentration was determined using the BCA assay. Equal protein was subjected to SDS-PAGE and immunoblotting and visualized by autoradiography (using enhanced chemiluminescence) or fluorescent analysis using the L1-Cor Odyssey system.

[7] = tested on: 3T3-L1 preadipocytes; assay: Clonal expansion / cell number of differentiating 3T3-L1 cells (Syto60); format: cell-based, murine
Procedure: as §2
Essentially Syto60 staining was used to determine cell number following the manufacturers protocol. […] Finally, wells were aspirated and Syto60 staining was detected and quantitated using the LI-COR Odyssey Infrared Imaging System. DAPI was detected by fluorescence microscopy and was used to validate the Syto60 data in preliminary experiments.

## CCCCCCCCCCCCC/C=C/[C@@H](O)[C@H](CO)NC(C)=O [C2-ceramide]
[1]; C2-ceramide 100 μM, 2 h
  insulin-stimulated IMPDH phosphorylation: without effect
[2]
  reduction of insulin-stimulated Akt phosphorylation: 70%

## COc1ccc2c(c1)c(C1=C(c3c[nH]c4ccccc34)C(=O)NC1=O)cn2CCCN(C)C [Gö6983]
[1]; Gö6983 1 μM, rapamycin 22 nM, data not shown
  role of the inhibited kinase (atypical PKCs; mTOR and p70S6 kinase) in insulin-stimulated IMPDH phosphorylation: eliminated

## O=c1cc(N2CCOCC2)oc2c(-c3ccccc3)cccc12 [LY294002]
[3]
  reduction of oleate-induced lipid accumulation (Oil red-O): approximately 50%

## COc1c(C)c2c(c(O)c1C/C=C(\C)CCC(=O)O)C(=O)OC2 [MPA, mycophenolic acid]
[4]; 1 μM MPA
  lipid accumulation (determined morphologically): blocks lipid accumulation; also recorded: reduced lipid accumulation; also recorded: inhibited lipid accumulation
[4]; 1 μM MPA, day 8
  G3PDH activity: decreased G3PDH activity
[4]; MPA for 6 days (0-6)
  differentiation: block differentiation completely
[4]; MPA for the first 3 days (0-3) or the second 3 days (3-6) of differentiation
  lipid accumulation and G3PDH activity: reduced lipid accumulation and G3PDH activity
[4]; Mus musculus, 3T3-L1, increasing MPA for the first 6 days of differentiation, harvested day 8, read-out: IC50 for inhibition of differentiation (G3PDH activity and protein levels)
  IC50: 0.1 to 0.2 µM
[5]; 1 μM MPA
  induction of G3PDH activity: reduced
  lipid accumulation: reduced lipid accumulation and expression of G3PDH activity
[6]; 1 μM MPA
  IMPDH expression: promotes increased IMPDH expression; also recorded: promoted an increase in IMPDH expression
[6]; 1 μM MPA, harvested at day 3
  expression of adipogenic transcription factors CEBPα, CEBPβ, PPARγ: blocks expression of CEBPα, but not CEBPβ or PPARγ; also recorded: induction of expression of the adipogenic transcription factors CEBPβ and PPARγ, but not CEBPα, was apparent
[7]; 1 μM MPA, first 3 days of differentiation
  proliferation/clonal expansion: blocks proliferation/clonal expansion; also recorded: blocked clonal expansion

## Nc1nc2c(ncn2[C@@H]2O[C@H](CO)[C@@H](O)[C@H]2O)c(=O)[nH]1 [guanosine]
[4]; 60 μM guanosine + 1 μM MPA
  lipid accumulation and G3PDH activity in MPA-treated cells: reversed the effects of MPA treatment; also recorded: restored lipid accumulation
[4]; 300 μM guanosine + 1 μM MPA
  effects of MPA treatment on lipid accumulation and G3PDH activity: still able to reverse the effects of MPA treatment to some extent
[4]; 300 μM guanosine alone
  lipid accumulation and adipogenesis: reduced adipogenesis; also recorded: inhibited lipid accumulation and adipogenesis
[5]; 60 μM guanosine
  induction of G3PDH activity / differentiation: reduced induction of G3PDH activity; also recorded: inhibited differentiation
[6]; co-treatment with guanosine
  MPA-induced increase in IMPDH expression: Reversal of MPA induced increase in IMPDH expression; also recorded: prevented by co-treatment with guanosine
[7]; 60 μM guanosine co-treatment with MPA
  MPA inhibition of clonal expansion/proliferation: Reversal of effects of MPA on clonal expansion; also recorded: reversed the inhibition of proliferation by MPA
